In patent publication US20230109157A1, “TOPICALLY APPLICABLE PREPARATION COMPRISING PEPTIDES AS ALLERGEN PROTECTION FOR THE SKIN” (BEIERSDORF AG, priority 2020, published 2023):
Where no end group is shown, it is not given here.

Tests used:
interleukin 6 (IL6) = experiment: Interleukin 6 in supernatants of Phenion FTS full skin models (Bio-Plex multiplex immunoassay); assay type: cell-based, Human; details: FIG. 4, left bar; peptide alone
Experimental: (§1) The investigations were carried out using Phenion FTS full skin models (Phenion, Henkel). These were maintained for 3 days at 37° C. and 7% CO2 in deep-well plates having a […] pore size in the cell culture inserts. The skin models were maintained in 1.5 ml of air-liquid interface medium without phenol red. The medium was changed daily. The test substances were dissolved in ethanol and incubated at room temperature for 24 h. After culturing for 24 h, 25 μl of the substance solution was dripped onto a sterile filter paper that had previously been laid on the skin model. The barrier peptide (0.5 mM AcRFAACAA) had previously been applied to the model as a solution in 100 mM phosphate buffer (pH 7.5). Alternatively, the barrier peptide was applied in a formulation having a content of 0.25% by weight.
(§2) After culturing for a further 24 h, the models were harvested and one half embedded in OCT mounting medium (VWR Q-Path Chemicals), the other half snap-frozen in liquid nitrogen. The supernatant of each model was collected and stored at −20° C.
The supernatants were then analyzed (FIGS. 2, 3 and 4).
The supernatants of the Phenion FTS models were analyzed using the Bio-Plex Pro Human Cytokine Screening Panel (Bio-Rad) according to the manufacturer's protocol. […] The cytokine concentrations are calculated on the basis of the standard curves from the Bioplex system. […]

Phenion skin models = experiment: H&E staining of cryosections of Phenion skin models; assay type: cell-based; details: FIG. 5B; 0.5 mM peptide (control)
Experimental: as §1, §2
In further investigations, frozen sections were thawed and incubated for 10 min in 3.7% paraformaldehyde at RT. After three PBS wash steps and one minute in distilled water, they are stained for 3 min in hematoxylin solution. […]

[1] = Direct peptide reactivity assay (DPRA) with urushiols, Ellman's reagent, 24 h; details: FIG. 9; urushiols C15:1, C15:2, C15:3 (structures I-V); 24 h reaction, n=3
Experimental: FIGS. 7A-E, 8, and 9 show investigations into the reactivity of peptides of the invention with allergens over time (x-axis) and after 24 h. The absorbance is plotted on the y-axis. The peptide-allergen reactions were realized according to a direct peptide reactivity assay. The test is referred to as the in-chemico method, that is to say no cells are used, but a chemical reaction is carried out.
The native, still-unbound peptide is detected by reaction with Ellman's reagent and corresponding absorbance measurement. The direct peptide reactivity assay (DPRA) is a chemical method for predicting epidermal protein binding. DPRA uses for example HPLC to measure the depletion of peptides in solution after exposure to test chemicals.
In the DPRA method, the absorbance at 415 nm is determined as the measured variable.
The allergen concentration is in the investigations carried out a standard 5 mM and thus 10 times the concentration of the peptide used (0.5 mM).
The reaction courses shown in FIGS. 8 and 9 were determined colorimetrically through the reaction of the peptide with Ellmann's reagent in a photometer. In this reaction, DTNB ((5,5′-dithiobis-2-nitrobenzoic acid, Ellmann's reagent) is cleaved and attached to the SH residue of the amino acid cysteine of the peptides of the invention (Ac-RFAACAA, RFAACAA). […]

Row | interleukin 6 (IL6) concentration, peptide on its own (interleukin 6 (IL6)) | skin model histology (H&E), peptide alone (Phenion skin models) | Substance | reactivity and thus protective activity against urushiols [1]
1 | unchanged | unchanged | Ac-RFAACAA [Ac-RFAACAA, acetylarginine-phenylalanine-alanine-alanine-cysteine-alanine-alanine] | –
2 | – | – | RFAACAA [Arg Phe Ala Ala Cys Ala Ala] | very high reactivity
